In patent US20220168312A1, “MULTICOMPONENT CRYSTAL FORMULATIONS” (UNIVERSITY OF LIMERICK, priority 2019, published 2022):

Tests used:
[1] = format: physicochemical; conditions: intrinsic dissolution of compacts, 37° C., relative to pure LAM
Method: These compacts were each coated with paraffin wax, leaving one surface exposed and secured to the bottom of the dissolution apparatus with excess paraffin wax. Intrinsic solubility was determined using a 900 ml well filled with 900 ml of degassed, deionised water (or 0.1 M HCl solution) on a Pharma Test USP type II system. The solution had been previously equilibrated at 37° C. and the paddle speed was set to 100 rpm after adding the samples. Aliquots of media were withdrawn at 5, 10, 15, 20 30 and 60 minutes (or 0.25, 0.5, 1, 3, 6, 12 and 24 hours), filtered through 0.45 μm PTFE filters and tested via a UV spectrometer in triplicate.
UV-Vis absorbance measurements were carried on a Cary 60 UV-Vis spectrometer using 1 ml quartz cuvettes.

[2] = Tensile stress test of tablets; format: physicochemical
Method: Hardness testing was performed immediately after tableting using a Pharma Test hardness tester. Each compaction force was tested in triplicate. Tensile strength was calculated according to the Equation 1 where F is the load required to fracture the tablet, D the table diameter and H the tablet height: Tensile strength=2F/πDH Equation 1: […]

[3] = format: physicochemical
Method: Stability testing: Accelerated stability testing was conducted by taking 100 mg of powdered sample and placing it into a humidity chamber under 75% relative humidity at 40° C. for 14 days. The samples were analysed before and after testing by PXRD, FT-IR, DSC and TGA.

Thermal analysis (TGA) = format: physicochemical; conditions: 10° C./min, nitrogen
Method: Thermal Analysis: Thermogravimetric analysis (TGA) was performed using a TA Instruments TGA-Q50 on at a constant rate of 10° C./min from 25° C. to 350° C. under a flux of nitrogen of 50 ml/min. Differential Scanning Calorimetry (DSC) was carried out using sealed aluminium pans on a TA instruments DSC-Q2000 differential scanning calorimeter. Temperature calibrations were made using indium as the standard. An empty pan, sealed in the same way as the sample, was used as a reference. All the thermograms were run at a heating/cooling rate of 10° C./min under a nitrogen purge at a rate of 50 ml/min.

[4] = format: physicochemical; remark: listed apart in the source
Method: The product was recovered by filtration and dried in air.
Powder X-ray diffraction (PXRD): X-ray powder diffraction (XRPD) patterns were collected in Bragg-Brentano geometry on a PANalytical Empyrean diffractometer equipped with a sealed tube (Cu Kα12, λ=1.5418 Å) an 1D X'Celerator detector between 4 and 40° 2θ.

[5] = cited from earlier work

In the case of “lamotrigine:valproic acid (1:2) ionic cocrystal [LAMVAL]”, the “intrinsic dissolution, faster than pure LAM” value [1] is reported as 2 ×, the “tensile strength compared with LAM” value ([2]; across a range of compaction forces) is reported as “significantly greater tensile strength” and the “crystallinity after accelerated stability test (PXRD)” value [3] is reported as “remains crystalline”. For the same compound, the “product degradation after accelerated stability test (FT-IR and DSC)” value [3] was “no sign of product degradation”, the “thermally stable up to (thermogravimetric analysis)” value (Thermal analysis (TGA)) was “around 100 °C” and the “stability as a slurry in water (PXRD)” value [4] was “stable as a slurry in water”.

In the case of `Nc1nnc(-c2cccc(Cl)c2Cl)c(N)n1` [LAM, lamotrigine], the “tablet hardness / tensile strength” value ([2]; tablets obtained with a compaction weight lower than 400 kg) is given as “too brittle to enable hardness testing”, the half-life ([5]; in vivo) is given as “rather short half-life” and the oral bioavailability ([5]; orally) is given as 90%.
